The values below are quoted from earlier work in US20220220135A1 (BAR-ILAN UNIVERSITY, priority 2019, published 2022).

Holding throughout (settings): literature value; cited from earlier work
The target in one data set is T1, NPP1 (Homo sapiens, UniProt P22413).
T1 sequence (P22413 1-925): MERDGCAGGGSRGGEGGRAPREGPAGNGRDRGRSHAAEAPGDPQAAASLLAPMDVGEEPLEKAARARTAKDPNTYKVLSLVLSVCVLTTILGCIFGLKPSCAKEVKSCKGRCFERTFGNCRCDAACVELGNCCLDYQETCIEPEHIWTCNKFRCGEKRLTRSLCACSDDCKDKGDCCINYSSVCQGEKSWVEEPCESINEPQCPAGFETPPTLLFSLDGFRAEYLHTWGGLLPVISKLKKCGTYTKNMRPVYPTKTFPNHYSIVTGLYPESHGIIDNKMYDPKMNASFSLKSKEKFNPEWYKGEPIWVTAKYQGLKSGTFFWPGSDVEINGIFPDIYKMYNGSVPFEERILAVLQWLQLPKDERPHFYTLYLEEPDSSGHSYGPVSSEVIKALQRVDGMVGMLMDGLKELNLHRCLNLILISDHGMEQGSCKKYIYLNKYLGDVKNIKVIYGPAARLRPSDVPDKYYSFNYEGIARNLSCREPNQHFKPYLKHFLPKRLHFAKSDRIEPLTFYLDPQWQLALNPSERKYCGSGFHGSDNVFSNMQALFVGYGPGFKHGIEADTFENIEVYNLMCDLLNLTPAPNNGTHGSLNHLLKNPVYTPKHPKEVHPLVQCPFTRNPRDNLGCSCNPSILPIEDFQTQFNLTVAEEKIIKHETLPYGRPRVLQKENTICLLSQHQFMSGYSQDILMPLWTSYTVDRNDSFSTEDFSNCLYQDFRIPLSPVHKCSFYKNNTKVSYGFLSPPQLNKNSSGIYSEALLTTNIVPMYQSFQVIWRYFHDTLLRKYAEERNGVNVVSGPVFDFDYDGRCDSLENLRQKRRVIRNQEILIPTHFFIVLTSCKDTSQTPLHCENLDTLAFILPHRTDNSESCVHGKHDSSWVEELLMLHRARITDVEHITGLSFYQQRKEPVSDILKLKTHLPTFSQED

A further data set addresses T2, human NPP3 (Homo sapiens, UniProt O14638).
T2 sequence (O14638 1-875): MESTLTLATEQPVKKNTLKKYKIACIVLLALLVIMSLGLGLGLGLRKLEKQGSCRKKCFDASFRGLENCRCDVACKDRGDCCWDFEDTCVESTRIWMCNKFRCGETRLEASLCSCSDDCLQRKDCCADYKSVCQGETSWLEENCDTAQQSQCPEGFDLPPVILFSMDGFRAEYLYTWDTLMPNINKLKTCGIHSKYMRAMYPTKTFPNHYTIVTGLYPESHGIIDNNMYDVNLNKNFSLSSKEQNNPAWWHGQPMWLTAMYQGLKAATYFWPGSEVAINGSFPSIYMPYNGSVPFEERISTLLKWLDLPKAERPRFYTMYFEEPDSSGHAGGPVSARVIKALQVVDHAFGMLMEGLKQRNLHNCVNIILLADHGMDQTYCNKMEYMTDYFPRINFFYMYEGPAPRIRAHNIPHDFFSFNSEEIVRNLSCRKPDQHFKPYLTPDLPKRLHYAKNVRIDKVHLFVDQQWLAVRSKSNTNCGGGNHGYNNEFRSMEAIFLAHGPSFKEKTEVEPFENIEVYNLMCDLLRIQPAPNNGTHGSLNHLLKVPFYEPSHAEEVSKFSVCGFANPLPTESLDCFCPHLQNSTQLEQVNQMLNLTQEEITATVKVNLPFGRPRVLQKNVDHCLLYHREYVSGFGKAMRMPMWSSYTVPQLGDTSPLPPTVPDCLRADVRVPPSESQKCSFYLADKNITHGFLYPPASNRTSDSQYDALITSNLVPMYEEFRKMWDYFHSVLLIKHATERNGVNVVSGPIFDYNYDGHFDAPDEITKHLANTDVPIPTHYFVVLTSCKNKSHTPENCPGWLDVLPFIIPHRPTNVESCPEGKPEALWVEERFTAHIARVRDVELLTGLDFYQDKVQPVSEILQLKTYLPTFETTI

In the next data set the target is T3, Human CD39 (NTPDase1) (Homo sapiens, UniProt P49961).
T3 sequence (P49961 1-510): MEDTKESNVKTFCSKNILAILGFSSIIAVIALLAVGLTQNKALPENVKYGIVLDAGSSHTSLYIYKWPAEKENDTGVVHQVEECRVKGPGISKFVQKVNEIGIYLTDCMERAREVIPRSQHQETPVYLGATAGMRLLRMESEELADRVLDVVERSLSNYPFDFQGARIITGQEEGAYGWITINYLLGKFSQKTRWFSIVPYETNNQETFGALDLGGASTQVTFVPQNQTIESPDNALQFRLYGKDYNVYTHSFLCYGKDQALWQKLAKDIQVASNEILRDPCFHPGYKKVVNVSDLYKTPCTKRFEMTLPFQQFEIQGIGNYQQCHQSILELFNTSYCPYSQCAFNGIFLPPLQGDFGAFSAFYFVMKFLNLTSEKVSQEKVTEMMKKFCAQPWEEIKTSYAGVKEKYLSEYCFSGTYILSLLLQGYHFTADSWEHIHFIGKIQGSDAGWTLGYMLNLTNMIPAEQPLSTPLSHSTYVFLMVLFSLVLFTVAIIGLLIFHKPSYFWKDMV

A further data set deals with T4, Human CD73 (Homo sapiens, UniProt P21589).
T4 sequence (P21589 27-549): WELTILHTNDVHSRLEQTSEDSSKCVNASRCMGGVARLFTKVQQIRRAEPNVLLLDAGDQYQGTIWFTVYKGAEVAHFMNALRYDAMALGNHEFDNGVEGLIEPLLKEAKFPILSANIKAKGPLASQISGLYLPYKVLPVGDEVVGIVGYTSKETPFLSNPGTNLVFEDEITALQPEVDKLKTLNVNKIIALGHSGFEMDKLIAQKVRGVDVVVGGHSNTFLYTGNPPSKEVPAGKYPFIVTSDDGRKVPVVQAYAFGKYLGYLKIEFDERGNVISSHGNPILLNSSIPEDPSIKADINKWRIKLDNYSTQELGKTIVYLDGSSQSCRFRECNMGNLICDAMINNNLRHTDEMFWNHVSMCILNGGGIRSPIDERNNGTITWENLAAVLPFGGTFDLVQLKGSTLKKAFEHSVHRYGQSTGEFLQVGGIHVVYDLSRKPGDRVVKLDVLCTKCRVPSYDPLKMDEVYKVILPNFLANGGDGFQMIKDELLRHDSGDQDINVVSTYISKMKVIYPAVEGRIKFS

As to `Nc1c(S(=O)(=O)O)cc(Nc2ccc(Nc3nc(Cl)nc(Nc4cccc(S(=O)(=O)O)c4)n3)c(S(=O)(=O)O)c2)c2c1C(=O)c1ccccc1C2=O` [Reactive Blue 2], the inhibition constant Ki at NPP1 was 0.52 µM; at human NPP3, 0.71 µM; on Human CD39 (NTPDase1), 20 µM; at Human CD73, 3.07 µM.
